The record followed here is PMC2816717, “Active Fragments from Pro- and Antiapoptotic BCL-2 Proteins Have Distinct Membrane Behavior Reflecting Their Functional Divergence” (PLoS ONE, 2010).

Series [1] can be described thus: Surface pressure change after peptide injection without lipid monolayer. It counts as physicochemical. The following applies: peptide 0.2 µM injected into pure subphase, Hepes buffer pH 7.4, 22.5°C; defined as threshold for significant variation. How it is done:
A number of control experiments were carried out in order to characterize the peptide-lipid monolayer interactions at the air-buffer interface. First, we determined surface pressure-time isotherms of Bax-α5S, a strongly amphipathic and hydrophobic peptide (Table 1), in presence or absence of lipids (POPC/DOPE/CL, see Figure 2). When the peptide was injected into a pure subphase without any lipid monolayer, the corresponding surface pressure change was Δπ = 4.8 mN/m (this value was subsequently defined as a threshold level for significant surface pressure variation). When the same injection was repeated but this time using a lipid monolayer over the aqueous subphase, at an initial surface pressure of 5 mN/m, the surface pressure rose up to Δπ = 32.1 mN/m (Figure 2). […] Then, we measured compression–decompression–recompression isotherms in presence of the peptide. […] After stabilization, the peptide was injected underneath the monolayer, πmax was recorded (32.1 mN/m) and the monolayer was decompressed.
Figure 2 Surface pressure-time isotherms for BAX-α5S with (bold line) or without (light line) POPC/DOPE/CL lipids. […] The initial velocity of surface pressure increase (Vi) was calculated as the slope of the curve (Δπ/Δt) at the time of peptide addition. […]

The test system of series [2] is mitochondria isolated from HEK293T cells. The experiment in a line: Cytochrome c release assay. It counts as biochemical. The conditions noted are these: 10 µM peptide, 5 min incubation, 30°C, Western blot of supernatant and pellet. How it is done:
Thus, we tested the ability of the different peptides to induce the release of mitochondrial proteins by incubating them with mitochondria isolated from HEK293T cells, and subsequently assaying the supernatant and pelleted fractions with antibodies for cytochrome c and mitoHSP70. […] On the other hand, incubation of mitochondria with 10 µM BID-α6 induced a slower release, with depletion of the mitochondrial pool of cytochrome c occurring only after 1 hour incubation.
Figure 7 Cytochrome c release assays. Peptides were incubated with isolated mitochondria for the indicated times (min) and the release of cytochrome c was monitored by Western blotting (IB). MitoHSP70 was used as an equal-loading control for the pellet fraction. Control lanes indicate that in the preparation the MOM is intact and cytochrome c is retained within the intermembrane space. A. Cytochrome c release assays for the first (BAX-α5S, BCLX-α5S, BID-α6) and second helices (BAX-α6, BCLX-α6, BID-α7) of the ‘pore domain’ of BAX, BCL-xL and BID using mitochondria isolated from HEK293T cells. B. Cytochrome c release assays for BAX-α5M and BAX-α5MS using mitochondria isolated from MEF and MEK BAX/BAK -/- double knock-out cells (MEF DKO). C. Cytochrome c release assays for the BH3 peptides.
Crude mitochondria were prepared from HEK 293T, mouse embryo fibroblast (MEF) or BAX/BAK double knockout MEF cells (MEF-DKO). In brief, cells were mechanically broken using a 2 ml glass/glass Dounce homogenizer (Kontes) (30 strokes). Homogenates were cleared at 1500 g and mitochondria were spun down at 10 000 g. For cytochrome c release assays, 30 µg of crude mitochondria were resuspended at 1 mg/ml in KCl buffer supplemented with succinate (5 mM) and EGTA (0.5 mM). Peptides (2.5, 10 or 25 µM) were added to the samples and incubations were carried out at 30°C under agitation (300 rpm). At the indicated time points, samples were centrifuged (5 min, 10 000 g, 4°C); supernatants and pellets were recovered and analyzed by immunoblotting for Cytochrome c and mitoHsp70.

For the sequence “WGRVVALFYFASKLVLKALSTK [BAX-α5S, short peptide of the first helix (α5) of the central hairpin of BAX]”, in series [1], the “surface pressure change (Δπ) without lipid monolayer” value came out at 4.8 mN/m. Moreover, the “cytochrome c release, in words” value in series [2] is “complete depletion of all mitochondrial cytochrome c”.
